Measurements from paper PMC3389199 (Bioorganic & medicinal chemistry letters, 2012).
Marks after values point to notes of the source that are not given here.

Experiments:
[1] = system: Lipoprotein Lipase (Bacterial); experiment: In vitro FRET-based lipoprotein lipase assay with reporter compound 17; format: biochemical, Pseudomonas sp.
[2] = target: T1, Pancreatic Lipase (Porcine) (Sus scrofa, UniProt P00591); experiment: In vitro FRET-based pancreatic lipase assay with reporter compound 17; format: biochemical; conditions: preliminary studies, substrate 17
T1 sequence (P00591 1-450): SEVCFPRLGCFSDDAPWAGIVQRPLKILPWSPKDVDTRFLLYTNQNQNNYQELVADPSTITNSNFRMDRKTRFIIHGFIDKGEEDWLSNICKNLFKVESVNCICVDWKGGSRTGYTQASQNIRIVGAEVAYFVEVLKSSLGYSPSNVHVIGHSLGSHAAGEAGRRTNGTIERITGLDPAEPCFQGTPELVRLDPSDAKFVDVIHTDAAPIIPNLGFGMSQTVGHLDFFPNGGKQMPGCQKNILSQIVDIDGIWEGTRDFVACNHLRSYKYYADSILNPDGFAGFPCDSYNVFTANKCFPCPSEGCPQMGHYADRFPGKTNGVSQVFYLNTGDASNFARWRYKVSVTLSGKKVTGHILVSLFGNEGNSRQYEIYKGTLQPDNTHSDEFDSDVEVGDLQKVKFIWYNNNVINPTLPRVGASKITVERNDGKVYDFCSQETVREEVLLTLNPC

hDAGLα [3] = target: T2, hDAGLα (Homo sapiens, UniProt Q9Y4D2); experiment: Radio-TLC assay of hDAGLα inhibition with [14C]SAG substrate; format: biochemical; conditions: for inhibition of hDAGLα activity at 10 μM (in words): radiolabeled substrate [14C]SAG
T2 sequence (Q9Y4D2 1-1042): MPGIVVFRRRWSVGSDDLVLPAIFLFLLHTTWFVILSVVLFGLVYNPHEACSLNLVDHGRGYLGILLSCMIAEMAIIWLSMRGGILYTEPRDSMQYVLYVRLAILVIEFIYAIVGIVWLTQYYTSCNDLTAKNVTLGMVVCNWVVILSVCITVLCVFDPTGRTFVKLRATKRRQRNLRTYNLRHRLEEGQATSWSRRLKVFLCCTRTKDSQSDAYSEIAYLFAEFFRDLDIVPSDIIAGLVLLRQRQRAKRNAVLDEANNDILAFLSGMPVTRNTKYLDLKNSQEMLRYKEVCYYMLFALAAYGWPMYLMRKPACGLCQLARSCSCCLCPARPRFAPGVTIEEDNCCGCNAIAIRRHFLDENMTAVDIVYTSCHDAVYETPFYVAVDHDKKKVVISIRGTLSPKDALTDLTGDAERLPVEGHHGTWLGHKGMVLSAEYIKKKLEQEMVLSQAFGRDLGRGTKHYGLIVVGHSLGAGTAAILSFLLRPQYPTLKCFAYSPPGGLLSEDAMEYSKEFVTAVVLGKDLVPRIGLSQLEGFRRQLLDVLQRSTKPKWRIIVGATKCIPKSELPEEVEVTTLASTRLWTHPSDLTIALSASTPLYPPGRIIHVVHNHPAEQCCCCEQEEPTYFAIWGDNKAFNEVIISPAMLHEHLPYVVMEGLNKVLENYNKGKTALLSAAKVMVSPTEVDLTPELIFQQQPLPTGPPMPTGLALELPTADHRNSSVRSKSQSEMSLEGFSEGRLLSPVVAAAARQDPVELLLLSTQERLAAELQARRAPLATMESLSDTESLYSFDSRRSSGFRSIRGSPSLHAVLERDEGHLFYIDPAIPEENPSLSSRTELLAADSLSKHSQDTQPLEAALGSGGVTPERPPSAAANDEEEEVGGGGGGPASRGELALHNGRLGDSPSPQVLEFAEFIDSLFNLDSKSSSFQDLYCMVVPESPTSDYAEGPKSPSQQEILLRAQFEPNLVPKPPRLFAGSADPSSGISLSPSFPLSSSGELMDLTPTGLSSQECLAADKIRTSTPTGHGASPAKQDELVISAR

FAAH = conditions: cited from earlier work
cannabinoid receptors = conditions: cited from earlier work
hDAGLα [4] = target: T2, hDAGLα; conditions: cited from earlier work
[5] = target: CB1 (rat brain preparation) (Rattus norvegicus, UniProt P20272); experiment: Cannabinoid receptor competition binding, CB1
Chain of CB1 (rat brain preparation) (P20272 whole entry): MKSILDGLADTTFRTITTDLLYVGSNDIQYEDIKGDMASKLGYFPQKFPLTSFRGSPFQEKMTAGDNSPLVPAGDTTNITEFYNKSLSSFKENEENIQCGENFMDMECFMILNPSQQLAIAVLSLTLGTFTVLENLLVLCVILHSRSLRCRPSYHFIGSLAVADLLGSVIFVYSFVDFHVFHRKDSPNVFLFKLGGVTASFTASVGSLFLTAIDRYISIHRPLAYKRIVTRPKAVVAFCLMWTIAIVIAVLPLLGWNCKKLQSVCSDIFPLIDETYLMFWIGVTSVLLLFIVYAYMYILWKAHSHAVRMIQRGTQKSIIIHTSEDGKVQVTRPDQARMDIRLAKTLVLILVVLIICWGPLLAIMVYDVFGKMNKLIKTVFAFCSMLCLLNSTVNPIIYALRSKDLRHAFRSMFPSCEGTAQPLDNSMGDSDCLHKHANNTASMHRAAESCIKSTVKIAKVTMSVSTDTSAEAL

hDAGLα [6] = target: T2, hDAGLα; experiment: In vitro FRET-based DAGL assay with reporter compound 17; format: biochemical
mDAGLβ = target: T3, mDAGLβ (Mus musculus, UniProt Q91WC9); experiment: Radio-TLC assay of mDAGLβ inhibition with [14C]SAG substrate; format: biochemical, murine
T3 sequence (Q91WC9 1-669): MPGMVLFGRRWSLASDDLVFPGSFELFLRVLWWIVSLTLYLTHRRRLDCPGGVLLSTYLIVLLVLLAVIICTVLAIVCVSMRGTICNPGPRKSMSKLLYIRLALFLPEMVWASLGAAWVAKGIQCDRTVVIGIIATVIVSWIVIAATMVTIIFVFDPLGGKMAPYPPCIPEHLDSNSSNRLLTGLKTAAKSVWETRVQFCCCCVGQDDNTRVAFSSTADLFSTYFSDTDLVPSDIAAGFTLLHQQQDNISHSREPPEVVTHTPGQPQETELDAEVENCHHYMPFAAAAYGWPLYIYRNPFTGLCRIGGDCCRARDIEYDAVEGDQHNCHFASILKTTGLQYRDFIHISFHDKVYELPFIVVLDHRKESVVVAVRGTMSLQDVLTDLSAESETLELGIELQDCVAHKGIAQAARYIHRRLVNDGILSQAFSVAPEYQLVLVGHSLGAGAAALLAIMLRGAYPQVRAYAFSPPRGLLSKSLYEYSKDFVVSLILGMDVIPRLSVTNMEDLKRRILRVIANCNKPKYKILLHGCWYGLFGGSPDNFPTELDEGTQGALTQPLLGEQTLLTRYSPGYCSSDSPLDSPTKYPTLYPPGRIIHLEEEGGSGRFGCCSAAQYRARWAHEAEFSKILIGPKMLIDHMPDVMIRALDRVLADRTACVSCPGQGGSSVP

With `CCCCCCCCCCC[C@@H](C[C@@H]1OC(=O)[C@H]1CCCCCC)OC(=O)[C@H](CC(C)C)NC=O` [3 (THL), tetrahydrolipstatin] the “inhibition of bacterial lipoprotein lipase (in words)” value [1] was “potent inhibition”, the IC50 ([1]; read-out: apparent IC50 with lipoprotein lipase in FRET assay) was roughly 100 nM and the “inhibition of porcine triacylglycerol lipase (in words)” value [2] was “potent inhibition”. For the same compound, the “inhibition of hDAGLα activity at 10 μM (in words)” value (hDAGLα [3]) was “complete inhibition”.
For `O=C(Oc1ccc([N+](=O)[O-])cc1)N1CCC(C(O)(c2ccc3c(c2)OCO3)c2ccc3c(c2)OCO3)CC1` [JZL184], the “reported inhibition of FAAH activity (in words)” value (FAAH) is listed as “poor inhibitors”, the “binding to the cannabinoid receptors, previous reports (in words)” value (cannabinoid receptors) is listed as “did not bind” and the “reported inhibition of DAGL activity (in words)” value (hDAGLα [4]) is listed as “poor inhibitors”. The “inhibition of hDAGLα in radio-TLC assays (in words)” value (hDAGLα [3]) was “poor inhibitors”.
In the case of `O=S(=O)(F)Cc1ccccc1` [PMSF, phenylmethylsulfonylfluoride], the “reported inhibition of FAAH activity (in words)” value (FAAH) is given as “poor inhibitors”, the “effect on / reaction with DAGL (in words)” value (hDAGLα [4]) is given as “not affected” and the “reported inhibition of DAGL activity (in words)” value (hDAGLα [4]) is given as “poor inhibitors”. For the same compound, the “inhibition of hDAGLα in radio-TLC assays (in words)” value (hDAGLα [3]) was “poor inhibitors”.
For `O=C(NCCCCCCNC(=O)ON=C1CCCCC1)ON=C1CCCCC1` [RHC80267 (1), RHC80267], the “reported inhibition of FAAH activity (in words)” value (FAAH) is listed as “poor inhibitors”, the “binding to the cannabinoid receptors (in words), CB1” value [5] is listed as “did not bind” and the “hDAGLα inhibition at 10 μM detergent free (%)” value (hDAGLα [6]) is listed as 40 ^* %. For the same compound, the “reported inhibition of DAGL activity (in words)” value (hDAGLα [4]) was “poor inhibitors” and the “inhibition of hDAGLα in radio-TLC assays (in words)” value (hDAGLα [3]) was “poor inhibitors”.
For `O=C(N[C@H]1COC1=O)OCc1ccccc1` [SD41], the “binding to the cannabinoid receptors (in words), CB1” value [5] was “did not bind”, the “inhibition of mDAGLβ at 10 μM screening concentration (in words)” value (mDAGLβ) was “did not inhibit” and the “inhibition of hDAGLα activity at 10 μM (in words)” value (hDAGLα [3]) was “did not inhibit”.
For `NC(=O)c1cccc(-c2cccc(OC(=O)NC3CCCCC3)c2)c1` [URB597], the “binding to the cannabinoid receptors, previous reports (in words)” value (cannabinoid receptors) is listed as “did not bind”.
